The text below walks through data of patent US8513271B2, “Pyrimidine compounds as delta opioid receptor modulators” (Janssen Pharmaceutica, NV, priority 2009, dated 2013).

The subject of assay [1] is CFA-induced paw radiant heat hypersensitivity. Briefly: CFA-induced paw radiant heat hypersensitivity. Conditions: for inhibition in vivo at 100 mg/kg: Rattus norvegicus; for maximum % reversal: time not printed (last time point 100 min). It counts as in vivo, rat.
In assay [2] the target is T1, delta opioid receptor (Rattus norvegicus, UniProt P33533).
T1 construct: the forebrains were homogenized in Tris buffer in a Teflon®-glass homogenizer; from tissue; host or cells: forebrain of male Wistar rats, particulate (membrane) preparation
T1 sequence (P33533 whole entry): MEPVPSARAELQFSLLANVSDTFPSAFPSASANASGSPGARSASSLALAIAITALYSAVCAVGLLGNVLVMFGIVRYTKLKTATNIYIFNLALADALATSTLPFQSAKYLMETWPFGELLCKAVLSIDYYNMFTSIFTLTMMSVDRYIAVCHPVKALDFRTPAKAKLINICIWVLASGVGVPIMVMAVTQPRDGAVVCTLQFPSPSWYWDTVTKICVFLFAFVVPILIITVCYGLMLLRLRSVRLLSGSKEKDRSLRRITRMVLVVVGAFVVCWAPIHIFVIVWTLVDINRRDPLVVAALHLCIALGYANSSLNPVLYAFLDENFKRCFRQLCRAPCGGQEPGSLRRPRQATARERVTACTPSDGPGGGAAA
Briefly: Rat brain delta opioid receptor binding assay. Conditions: rat forebrain, [3H]naltrindole ligand.

The next assay addresses T2, mu opioid receptor (Rattus norvegicus, UniProt P33535).
T2 construct: the forebrains were homogenized in Tris buffer in a Teflon®-glass homogenizer; from tissue; host or cells: forebrain of male Wistar rats, particulate (membrane) preparation
Briefly: Rat brain mu opioid receptor binding assay. Conditions: rat forebrain, [3H]DAMGO ligand.

The test system of assay [3] is acetic acid-induced abdominal stretches. Briefly: Mouse graded abdominal irritant test (GrAIT). It counts as in vivo. The conditions noted are these: 10% Solutol, 30 min pretreatment.
In assay [4] the target is hMOR (mu opioid receptor) (Homo sapiens, UniProt P35372). Briefly: [35S]GTPγS binding assays in CHO-hMOR cell membranes (mu opioid functional assay). It counts as biochemical. The conditions noted are these: read-out: GTPγS μ-opioid receptor % Inh @10 μM. A general note: Binding of GTPγS marks nucleotide exchange on a G protein.
Chain of hMOR (mu opioid receptor) (P35372 whole entry, looked up): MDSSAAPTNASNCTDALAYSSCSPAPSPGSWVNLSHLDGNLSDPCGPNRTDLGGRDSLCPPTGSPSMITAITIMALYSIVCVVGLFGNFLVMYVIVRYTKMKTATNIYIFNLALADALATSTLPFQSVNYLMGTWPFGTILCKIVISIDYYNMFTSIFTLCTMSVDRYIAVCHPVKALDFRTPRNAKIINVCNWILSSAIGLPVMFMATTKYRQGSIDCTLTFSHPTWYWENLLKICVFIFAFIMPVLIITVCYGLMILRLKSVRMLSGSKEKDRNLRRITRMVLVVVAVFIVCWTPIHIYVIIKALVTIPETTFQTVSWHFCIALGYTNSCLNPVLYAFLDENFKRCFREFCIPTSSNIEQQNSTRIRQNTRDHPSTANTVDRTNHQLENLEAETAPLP
For assay [5], the target named is T3, delta opioid receptor (Mus musculus, UniProt P32300).
T3 construct: NG108-15 cell membranes were purchased from Applied Cell Sciences (Rockville, Md.); host or cells: NG108-15 cell membranes
T3 sequence (P32300 whole entry): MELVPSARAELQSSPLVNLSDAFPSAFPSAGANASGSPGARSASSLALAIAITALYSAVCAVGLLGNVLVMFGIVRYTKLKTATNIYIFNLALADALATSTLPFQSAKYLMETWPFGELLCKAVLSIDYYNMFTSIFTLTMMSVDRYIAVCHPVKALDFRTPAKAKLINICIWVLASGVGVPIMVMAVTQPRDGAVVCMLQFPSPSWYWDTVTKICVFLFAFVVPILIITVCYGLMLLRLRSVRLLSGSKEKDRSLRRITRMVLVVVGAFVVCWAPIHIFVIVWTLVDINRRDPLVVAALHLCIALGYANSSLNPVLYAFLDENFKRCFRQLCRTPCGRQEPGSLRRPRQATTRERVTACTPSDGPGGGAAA
The assay is described as follows: [35S]GTPγS binding assay in NG108-15 cell membranes (delta opioid functional assay), 200 nM screen. It counts as biochemical.

Setting [6] is: δ-binding (Naltrindole ligand) Ki.

“And” between values parts separate entries of the source, which are not always exact repeats. Equal entries are not always repeated. Where two headings read alike, the source gives them in different places.

T2 sequence (P33535 whole entry): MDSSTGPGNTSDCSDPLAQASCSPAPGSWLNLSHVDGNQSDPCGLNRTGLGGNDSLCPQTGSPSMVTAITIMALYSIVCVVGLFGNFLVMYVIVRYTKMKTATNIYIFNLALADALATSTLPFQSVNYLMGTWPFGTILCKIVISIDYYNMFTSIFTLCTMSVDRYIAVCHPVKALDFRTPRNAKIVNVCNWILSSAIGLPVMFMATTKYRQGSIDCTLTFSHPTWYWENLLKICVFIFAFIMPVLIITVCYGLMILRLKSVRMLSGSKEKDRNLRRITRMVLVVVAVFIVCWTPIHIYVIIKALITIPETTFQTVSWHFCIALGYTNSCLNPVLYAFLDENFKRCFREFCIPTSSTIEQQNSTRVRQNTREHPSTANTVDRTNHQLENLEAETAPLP

By ED50 is commonly meant the midpoint of the dose-response relation. In general, Ki refers to a dissociation constant, usually derived from enzyme kinetics or from competition with a known ligand. With `COc1ccc(Oc2nc(-c3cncnc3)ncc2NC[C@@H]2CCCN2)cc1` [Cpd 23], in assay [1] (po, 2 h, rat, p.o., 0.5% HPMC, doses 10, 30, 100, 300 mg/kg, time point 120 min, read-out: ED50), the 50% effective dose (ED50) was determined as 35.4 mg/kg. The inhibitory constant (Ki) at delta opioid receptor [2] (read-out: δ-binding (Naltrindole ligand) Ki) turned out to be 1.25 nM; at mu opioid receptor (read-out: μ-binding Ki), 214 nM. Moreover, the “# abdominal stretches (compound)” value in assay [3] (30 mg/kg s.c.) is on record as 16.7.
As to `COc1ccc(Oc2nc(-c3cccnc3OC)ncc2NC[C@@H]2CCCN2)cc1` [Cpd 26], the values for the Ki on delta opioid receptor [2] (setting [6]) and at mu opioid receptor (read-out: μ-binding Ki) were 8 nM and 4050 nM, respectively. In addition, the “# abdominal stretches (compound)” value in assay [3] (30 mg/kg s.c.) stood at 16.7.
On to `COc1ccc(Oc2nc(-c3cnc4ccccc4c3)ncc2NC[C@@H]2CCCN2)cc1` [Cpd 20], for which the Ki is 4.93 nM at delta opioid receptor [2] (setting [6]) and 146 nM on mu opioid receptor (read-out: μ-binding Ki). The “# abdominal stretches (compound)” value in assay [3] (30 mg/kg s.c.) amounted to 19.8.
Take `COc1ccc(Oc2nc(-c3cccnc3F)ncc2NC[C@@H]2CCCN2)cc1` [Cpd 24]: the inhibitory constant (Ki) on delta opioid receptor [2] (setting [6]) is 1 nM; at mu opioid receptor (read-out: μ-binding Ki), 1060 nM. Moreover, the “# abdominal stretches (compound)” value in assay [3] (30 mg/kg s.c.) worked out at 16.9.
By EC50 is commonly meant the midpoint of the concentration-response curve. Read a low EC50 as higher potency in that assay. Regarding `COc1ccc(Oc2nc(-c3cccnc3)ncc2NC[C@@H]2CCCN2)cc1` [Cpd 8], the inhibition in vivo at 100 mg/kg in assay [1] (po, 1 h, read-out: maximum % reversal @ time (min), rat, 100 mg/kg p.o., 0.5% HPMC, @ 60 min) turned out to be 46.5%; in assay [1] (po, 3 h, read-out: maximum % reversal @ time (min), rat, 100 mg/kg p.o., 0.5% HPMC, @ 180 min, Algos (contract lab) study) it was 75.1%. In addition, the maximum % reversal in assay [1] (rat, 30 mg/kg p.o., 0.5% HPMC) was found to be 49.0%; in assay [1] (rat, 100 mg/kg p.o., 0.5% HPMC), 64.8%. The inhibition at 10 µM in assay [4] is 2.48%; at delta opioid receptor [5] (read-out: GTPγS δ-opioid receptor % Inh @10 μM), 23.6%. Further, the concentration for a half-maximal effect (EC50) at delta opioid receptor [5] (GTPγS δ-opioid receptor EC50 (μM), NG108-15 cell membranes, averages if tested more than once) was 0.0681 µM. Moreover, at delta opioid receptor [5] (relative efficacy from dose response, NG108-15 cell membranes), the “GTPγS δ-opioid receptor Rel Efficacy” value turned out to be 0.848. Moreover, the inhibition constant Ki was determined as 6.19 nM at delta opioid receptor [2] (setting [6]) and 42.8 nM on mu opioid receptor (μ-binding Ki). Moreover, the “# abdominal stretches (compound)” value in assay [3] (30 mg/kg s.c.) is 18.9.
As to `COc1ccc(Oc2nc(-c3ccc(OC)nc3)ncc2NC[C@@H]2CCCN2)cc1` [Cpd 22], the figures for the Ki at delta opioid receptor [2] (setting [6]) and at mu opioid receptor (read-out: μ-binding Ki) were 0.909 nM and 1100 nM, respectively. Further, the “# abdominal stretches (compound)” value in assay [3] (30 mg/kg s.c.) was 18.6 and 16.0; in assay [3] (100 mg/kg s.c.), 17.4; in assay [3] (300 mg/kg s.c.), 20.3.
